Measurements published in the NIST ThermoML archive (doi:10.1016/j.tca.2014.03.030).
± gives the expanded uncertainty stated by the source.

Tests used:
[1] = Molar enthalpy of transition or fusion
[2] = DTA

Molar enthalpy of transition or fusion ([1]; Crystal 1) [kcal/mol] | Normal melting temperature ([2]; Crystal 1) [°C] | Molar enthalpy of transition or fusion ([1]; Crystal) [kcal/mol] | Normal melting temperature ([2]; Crystal) [°C] | SMILES
10.4 ± 0.574 | 98.1 ± 2.1 |  |  | CCCCCCCCCCCCCC(=O)NCCc1ccc(O)cc1 [N-[2-(4-hydroxyphenyl)ethyl]tetradecanamide]
11.8 ± 0.645 | 103.76 ± 2.1 |  |  | CCCCCCCCCCCCCCCC(=O)NCCc1ccc(O)cc1 [N-[2-(4-hydroxyphenyl)ethyl]hexadecanamide]
 |  | 6.69 ± 0.382 | 91.39 ± 2.1 | CCCCCCCCCCCC(=O)NCCc1ccc(O)cc1 [N-[2-(4-hydroxyphenyl)ethyl]dodecanamide]
 |  | 5.08 ± 0.311 | 81.47 ± 2.1 | CCCCCCCCCC(=O)NCCc1ccc(O)cc1 [N-[2-(4-hydroxyphenyl)ethyl]decanamide]
